# Measurements taken from US4312861A, “Pharmaceutical compositions containing N-alkyl-N-(nuclearly-substituted) benzylamines having vasotonia-regulating activity” (Hoechst Aktiengesellschaft, priority 1974, dated 1982).
# What was measured:
# [1] = Toxicity in the mouse (Litchfield and Wilcoxon); type: in vivo; conditions: mouse, in vivo
# Description: (6) Toxicity in the mouse
# Toxicity was determined according to Litchfield and Wilcoxon (J. Pharmacol. exp. Ther. 97 (1949), page 399) in the mouse. In comparison, the values with the known substance aescin sodium salt were determined. Comparative tests with 0.1% solution, of venous and optical compatibility on the rabbit yielded similar results.
# [2] = test system: isolated guinea-pig heart; assay: Relative coronary blood-flow change in isolated guinea-pig heart (Langendorff)
# Description: (4) Relative coronary blood-flow change in an isolated guinea-pig heart.
# The tests were carried out according to the method of Langendorff (Pflugers Archiv. 61 (1895), page 219).
# In Table 5, the change in coronary blood flow after administration of various quantities of the test substance is compared with that after administration of the known compounds heptaminol and Aescin sodium salt.
# [3] = test system: perfused rabbit ear; assay: Blood-flow change in perfused isolated rabbit ear, vaso-dilator activity (Ringer-Norfenefrin solution)
# Description: (3) Blood-flow change in an isolated rabbit ear
# The tests were carried out according to Krakow-Pissemski (Pflugers Archiv 151 (1913), page 583 and 156 (1914), page 426). In Table 5a the estimated values of the vaso-constrictor activity in Ringer solutions of varying concentrations are given and in Table 5b values for vasodilatory activity in Ringer-Norfenefrin solutions of varying concentrations are given. As a comparison, the values obtained with the known preparation aescin sodium are given.
# [4] = test system: isolated portal vein; assay: Isolated rat's portal vein (Berti), increase in tonus
# Description: (2) Isolated rat's portal vein
# The tests on the rat's portal vein, an organ with its own rhythm, were performed according to the method of Berti et al (Arch. int. Pharmacodyn. 184 (1970), page 328). In Table 4, the increase in tonus at various adrenalin concentrations is given in milligrams. As a comparison, the values for the known substance heptaminol (=6-amino-2-methylheptane-2-ol) are also given.
# [5] = test system: permeability of the capillaries; assay: Histamine rash test (modified Halpern), capillary permeability; type: in vivo; conditions: 30 minutes before histamine
# Description: The test according to Halpern (Presse medicale 65 (1949), page 949) was used in modified form. The suppressive effect of the compounds according to the invention on the permeability of the capillaries was tested. The blue coloration induced by intravenous administration of trypan blue at two intracutaneous histamine injection points per animal, (trypan blue administered 2 minutes before the histamine), was estimated according to the following scale of values:
# indications of blue coloration
# clear blue coloration =4
# stong blue coloration =6
# The preceding evaluation was made from the combined effect at the two injection points.
# The test substances were administered i.p. 30 minutes before the histamine injection.
# [6] = test system: writhing movements in the mouse; assay: Writhing test (Winter); type: in vivo; conditions: 50 mg/kg p.o.
# Excerpt: The analgesic activity of the compounds according to the invention were studied by the method of Winter et al (Proc. Soc. exp. Biol. Med, 111 (1962), page 544), in which the suppression of writhing movements in the mouse was observed.
# [7] = test system: carrageenin oedema in the rat paw; assay: Suppression of carrageenin oedema in the rat paw (Siegmund); type: in vivo; conditions: 200 mg/kg p.o.; 3 h p.a.
# Description: (7) Suppression of carrageenin oedema in the rat paw
# The inflammation-reducing and anti-oedematous effects on carrageenin and serotonin oedemas in the rat paw were studied according to Siegmund et al (Proc. Soc. exp. Biol. Med. 95 (1957), page 729). The values are given as percentages, based on the values obtained in control tests using a dummy procedure. In this way, the antiphlogistic activity of the substances according to the invention was tested.
# [8] = 10 μg (first figure where two are given)
# [9] = 30 μg (first figure where two are given)
# [10] = 100 μg (first figure where two are given)
compound,measurement,setting,value
CCCCCCCNCc1c(C)cc(C)cc1C [compound 16],LD50,[1]; ip,50 to 100 mg/kg
same,Relative change in coronary blood flow,[2]; [8],+55
same,Relative change in coronary blood flow,[2]; [9],+61
CCCCCCCCNCc1c(C)cc(C)cc1C [compound 17],LD50,[1]; ip,25 to 50 mg/kg
same,Relative change in coronary blood flow,[2]; [9],+138
CCCCCCCCCNCc1c(C)cc(C)cc1C [compound 18],LD50,[1]; ip,50 to 100 mg/kg
Cc1cc(C)c(CNCCCC(C)C)c(C)c1 [compound 19],LD50,[1]; ip,100 to 250 mg/kg
same,"Relative change in coronary blood flow, second figure after slash",[2]; 10 μg,-15
same,Relative change in coronary blood flow,[2]; [8],+30
same,"Relative change in coronary blood flow, second figure after slash",[2]; 30 μg,-10
same,Relative change in coronary blood flow,[2]; [9],+71
COCCCNCc1c(C)cc(C)cc1C [compound 20],LD50,[1]; ip,50 to 100 mg/kg
same,"Relative change in blood flow, vaso-dilator activity",[3]; 3 × 10^-5 g/ml,+30
same,"Relative change in blood flow, vaso-dilator activity",[3]; 10^-4 g/ml,+131
same,"Relative change in blood flow, vaso-dilator activity",[3]; 10^-5 g/ml,+4
same,"Relative change in blood flow, vaso-dilator activity",[3]; 10^-6 g/ml,+12
CCOCCCNCc1c(C)cc(C)cc1C [compound 21],LD50,[1]; ip,50 to 100 mg/kg
same,Relative change in coronary blood flow,[2]; [8],+22
same,Relative change in coronary blood flow,[2]; [9],+23
CCCCCCOCCCNCc1c(C)cc(C)cc1C [compound 22],LD50,[1]; ip,25 to 50 mg/kg
same,"Increase in tonus, isolated rat's portal vein",[4]; 10^-4 g/ml,+271 milligrams
same,"Increase in tonus, isolated rat's portal vein",[4]; 10^-5 g/ml,+225 milligrams
same,"Increase in tonus, isolated rat's portal vein",[4]; 10^-6 g/ml,+65 milligrams
same,Increase in vasotonus compared with heptaminol,[4]; in words,distinctly stronger increase in vasotonus than the comparison substance heptaminol
same,"Histamine rash test, blue coloration score (0 = none, 2 = indications, 4 = clear, 6 = strong)",[5]; 1.0 mg/kg i.p.,2.6
same,"Histamine rash test, blue coloration score (0 = none, 2 = indications, 4 = clear, 6 = strong)",[5]; 3.0 mg/kg i.p.,1.3
same,Relative change in coronary blood flow,[2]; [9],+109
same,"Relative change in blood flow, vaso-dilator activity",[3]; 3 × 10^-5 g/ml,0
Cc1cc(C)c(CNCCCOC(C)C)c(C)c1 [compound 23],LD50,[1]; ip,100 to 250 mg/kg
CCCC(C)NCc1c(C)cc(C)cc1C (stereo not shown) [compound 24],LD50,[1]; ip,50 to 100 mg/kg
CCCCC(C)NCc1c(C)cc(C)cc1C (stereo not shown) [compound 25],LD50,[1]; ip,50 to 100 mg/kg
same,"Histamine rash test, blue coloration score (0 = none, 2 = indications, 4 = clear, 6 = strong)",[5]; 3.0 mg/kg i.p.,1.3
same,"Histamine rash test, blue coloration score (0 = none, 2 = indications, 4 = clear, 6 = strong)",[5]; 10.0 mg/kg i.p.,1.4
same,"Relative change in blood flow, vaso-dilator activity",[3]; 3 × 10^-6 g/ml,+39
same,"Relative change in blood flow, vaso-dilator activity",[3]; 10^-4 g/ml,+147
same,"Relative change in blood flow, vaso-dilator activity",[3]; 10^-5 g/ml,+93
same,"Relative change in blood flow, vaso-dilator activity",[3]; 10^-6 g/ml,+1
same,"Relative change in blood flow, vaso-dilator activity",[3]; 10^-7 g/ml,+3
same,Suppression of writhing movements,[6],46%
CCC(C)CC(C)NCc1c(C)cc(C)cc1C (stereo not shown) [compound 28],LD50,[1]; ip,50 to 100 mg/kg
same,"Increase in tonus, isolated rat's portal vein",[4]; 10^-4 g/ml,+84 milligrams
same,"Increase in tonus, isolated rat's portal vein",[4]; 10^-5 g/ml,+57 milligrams
same,"Increase in tonus, isolated rat's portal vein",[4]; 10^-6 g/ml,+21 milligrams
same,"Histamine rash test, blue coloration score (0 = none, 2 = indications, 4 = clear, 6 = strong)",[5]; 3.0 mg/kg i.p.,2.9
same,Relative change in coronary blood flow,[2]; [9],+118
same,Relative change in coronary blood flow,[2]; [10],+226
same,"Relative change in blood flow, vaso-dilator activity",[3]; 3 × 10^-5 g/ml,+47
Cc1cc(C)c(CNC(C)CCCC(C)C)c(C)c1 (stereo not shown) [compound 29],LD50,[1]; ip,50 to 100 mg/kg
same,"Histamine rash test, blue coloration score (0 = none, 2 = indications, 4 = clear, 6 = strong)",[5]; 1.0 mg/kg i.p.,3.3
same,"Histamine rash test, blue coloration score (0 = none, 2 = indications, 4 = clear, 6 = strong)",[5]; 3.0 mg/kg i.p.,1.7
same,Relative change in coronary blood flow,[2]; [9],+111
same,"Relative change in blood flow, vaso-dilator activity",[3]; 3 × 10^-5 g/ml,+19
CCCCCC(C)N(Cc1c(C)cc(C)cc1C)CP(C)(C)=O (stereo not shown) [compound 30],LD50,[1]; ip,100 to 250 mg/kg
same,Relative change in coronary blood flow,[2]; [8],+158
same,Relative change in coronary blood flow,[2]; [9],+211
same,Relative change in coronary blood flow,[2]; [10],+232
same,"Relative change in blood flow, vaso-dilator activity",[3]; 3 × 10^-5 g/ml,+67
same,"Relative change in blood flow, vaso-dilator activity",[3]; 10^-5 g/ml,+79
Cc1cc(C)c(CNC(C)CCCC(C)(C)O)c(C)c1 (stereo not shown) [compound 31],LD50,[1]; iv,50 to 100 mg/kg
same,"Histamine rash test, blue coloration score (0 = none, 2 = indications, 4 = clear, 6 = strong)",[5]; 10.0 mg/kg i.p.,2.6
same,"Relative change in blood flow, vaso-dilator activity",[3]; 10^-4 g/ml,+87
same,"Relative change in blood flow, vaso-dilator activity",[3]; 10^-5 g/ml,+41
same,"Relative change in blood flow, vaso-dilator activity",[3]; 10^-6 g/ml,+12
same,Suppression of carrageenin oedema in the paw (antiphlogistic activity),[7],26%
